Measurements: PMC2014795 (PLoS Pathogens, 2007)

Biological target: T1, HLA-DR1 (DRB1*0101) (Homo sapiens, UniProt P01903+P01911, A100R/D57E/F55L/F60I/F76Y/I96L/L162R/M171V/P40L/Q125E/R42F/V115G/Y59C)
T1 construct: the extracellular portion of HLA-DR1 was produced by expression of isolated subunits in Escherichia coli inclusion bodies; made in house
Assay: biochemical
Assay type: binding

SMILES	IC50 [nM]
CC[C@H](C)[C@H](N)C(=O)N[C@H](C(=O)N[C@H](C(=O)N[C@@H](Cc1c[nH]c2ccccc12)C(=O)N1CCC[C@H]1C(=O)N[C@@H](CCCCN)C(=O)N[C@@H](Cc1ccccc1)C(=O)N[C@@H](CCCNC(=N)N)C(=O)N[C@H](C(=O)N[C@H](C(=O)N[C@@H](CCCCN)C(=O)N1CCC[C@H]1C(=O)N[C@@H](CC(N)=O)C(=O)N[C@@H](CO)C(=O)N[C@@H](Cc1ccccc1)C(=O)N[C@H](C(=O)N[C@@H](Cc1ccccc1)C(=O)N[C@@H](CO)C(=O)N[C@@H](Cc1ccccc1)C(=O)N[C@@H](CO)C(=O)N[C@@H](CO)C(=O)O)[C@@H](C)O)C(C)C)C(C)C)[C@@H](C)O)[C@@H](C)O [Peptide 344]	33 ± 5
CC[C@H](C)[C@H](NC(=O)[C@H](Cc1ccccc1)NC(=O)[C@H](CCC(=O)O)NC(=O)[C@H](CC(N)=O)NC(=O)[C@@H](N)[C@@H](C)O)C(=O)N[C@@H](CO)C(=O)N[C@@H](Cc1ccccc1)C(=O)N[C@@H](CC(C)C)C(=O)N[C@@H](CC(C)C)C(=O)N[C@@H](CC(C)C)C(=O)N[C@H](C(=O)N[C@@H](CO)C(=O)N[C@H](C(=O)N1CCC[C@H]1C(=O)N[C@H](C(=O)N[C@@H](Cc1ccc(O)cc1)C(=O)N[C@@H](CC(N)=O)C(=O)N[C@H](C(=O)N[C@@H](CC(C)C)C(=O)N[C@@H](Cc1ccccc1)C(=O)N[C@@H](Cc1c[nH]c2ccccc12)C(=O)O)[C@@H](C)CC)[C@@H](C)CC)[C@@H](C)CC)[C@@H](C)O [Peptide 313]	510 ± 110
CC[C@H](C)[C@H](N)C(=O)N1CCC[C@H]1C(=O)N[C@@H](CC(C)C)C(=O)N[C@@H](CO)C(=O)N[C@@H](CCC(=O)O)C(=O)N[C@@H](CCSC)C(=O)N[C@H](C(=O)N[C@H](C(=O)N[C@@H](CCCCN)C(=O)N[C@@H](CC(C)C)C(=O)N[C@H](C(=O)N[C@@H](C)C(=O)N[C@H](C(=O)N[C@@H](CS)C(=O)N[C@@H](CCSC)C(=O)N[C@@H](CCCCN)C(=O)N[C@@H](CS)C(=O)N[C@@H](Cc1ccccc1)C(=O)N[C@@H](CCCCN)C(=O)N[C@@H](CCC(=O)O)C(=O)N[C@@H](C)C(=O)O)C(C)C)[C@@H](C)O)C(C)C)C(C)C [Peptide 305]	29 ± 10
CC[C@H](C)[C@H](N)C(=O)N[C@@H](CC(=O)O)C(=O)N[C@@H](CC(N)=O)C(=O)N[C@@H](CCC(=O)O)C(=O)N[C@@H](CO)C(=O)NCC(=O)N[C@@H](Cc1c[nH]c2ccccc12)C(=O)N[C@@H](CCCCN)C(=O)N[C@H](C(=O)N[C@@H](CC(C)C)C(=O)N[C@H](C(=O)N[C@@H](CO)C(=O)N[C@@H](CCCNC(=N)N)C(=O)N[C@@H](C)C(=O)N[C@H](C(=O)N[C@@H](CC(=O)O)C(=O)N[C@@H](CC(C)C)C(=O)N[C@@H](CO)C(=O)N[C@@H](CO)C(=O)N[C@@H](CCCCN)C(=O)N[C@@H](CCCCN)C(=O)O)[C@@H](C)CC)C(C)C)[C@@H](C)O [Peptide 342]	130 ± 10
CC[C@H](C)[C@H](NC(=O)[C@H](CC(N)=O)NC(=O)[C@H](Cc1ccccc1)NC(=O)[C@H](CC(C)C)NC(=O)[C@H](CCCCN)NC(=O)[C@H](CC(N)=O)NC(=O)CNC(=O)[C@H](CC(=O)O)NC(=O)[C@H](CC(C)C)NC(=O)[C@@H]1CCCN1C(=O)[C@@H](NC(=O)[C@@H](NC(=O)[C@H](CCCCN)NC(=O)[C@@H](NC(=O)[C@H](CCCCN)NC(=O)[C@H](CS)NC(=O)[C@H](CO)NC(=O)[C@@H](N)Cc1c[nH]cn1)C(C)C)[C@@H](C)CC)C(C)C)C(=O)N[C@@H](C)C(=O)N[C@@H](CCC(N)=O)C(=O)N[C@@H](CCCNC(=N)N)C(=O)O [Peptide 329]	5 ± 1
CC[C@H](C)[C@H](NC(=O)[C@H](CCCNC(=N)N)NC(=O)[C@H](Cc1ccccc1)NC(=O)[C@H](CC(C)C)NC(=O)[C@H](Cc1ccc(O)cc1)NC(=O)[C@H](CCC(=O)O)NC(=O)[C@H](CO)NC(=O)[C@H](CC(=O)O)NC(=O)[C@@H](N)CCC(=O)O)C(=O)N[C@H](C(=O)N[C@@H](CO)C(=O)N[C@H](C(=O)N[C@H](C(=O)N[C@@H](CC(C)C)C(=O)N1CCC[C@H]1C(=O)N[C@@H](Cc1c[nH]cn1)C(=O)N[C@@H](CC(C)C)C(=O)N[C@@H](CS)C(=O)N[C@@H](CC(C)C)C(=O)N[C@@H](CC(=O)O)C(=O)N[C@@H](Cc1ccc(O)cc1)C(=O)O)C(C)C)[C@@H](C)O)C(C)C [Peptide 334]	45 ± 8
CC[C@H](C)[C@H](NC(=O)[C@H](CC(N)=O)NC(=O)[C@H](CCSC)NC(=O)[C@H](CS)NC(=O)[C@H](CCC(N)=O)NC(=O)[C@@H](NC(=O)[C@@H](NC(=O)[C@H](CCCCN)NC(=O)CN)[C@@H](C)O)[C@@H](C)O)C(=O)N[C@@H](CCSC)C(=O)N[C@@H](CCC(=O)O)C(=O)N[C@@H](CO)C(=O)N[C@H](C(=O)N1CCC[C@H]1C(=O)N[C@@H](C)C(=O)N[C@@H](CC(N)=O)C(=O)N[C@H](C(=O)N[C@H](C(=O)N[C@@H](CCCCN)C(=O)N[C@@H](Cc1ccc(O)cc1)C(=O)N[C@@H](CC(C)C)C(=O)O)[C@@H](C)CC)[C@@H](C)O)[C@@H](C)CC [Peptide 327]	11 ± 3
CC[C@H](C)[C@H](N)C(=O)N[C@@H](CCCCN)C(=O)N[C@@H](CCCNC(=N)N)C(=O)NCC(=O)N[C@@H](CC(C)C)C(=O)N[C@@H](Cc1ccccc1)C(=O)N[C@@H](Cc1ccccc1)C(=O)N[C@@H](CC(C)C)C(=O)N[C@@H](CCCNC(=N)N)C(=O)N[C@@H](CC(C)C)C(=O)N[C@@H](CO)C(=O)N[C@@H](C)C(=O)N[C@@H](CC(N)=O)C(=O)N[C@@H](CC(C)C)C(=O)N[C@@H](Cc1ccccc1)C(=O)N[C@@H](CCC(=O)O)C(=O)N[C@@H](CO)C(=O)N[C@@H](CCC(N)=O)C(=O)N[C@H](C(=O)N[C@@H](CO)C(=O)N[C@@H](CO)C(=O)O)C(C)C [Peptide 333]	68 ± 14
CC[C@H](C)[C@H](N)C(=O)N[C@@H](CC(C)C)C(=O)N[C@@H](CCCCN)C(=O)N[C@@H](CO)C(=O)N[C@@H](CC(C)C)C(=O)NCC(=O)N[C@@H](Cc1ccccc1)C(=O)N[C@@H](CCCCN)C(=O)N[C@H](C(=O)N[C@@H](CC(C)C)C(=O)N[C@@H](CC(=O)O)C(=O)NCC(=O)N[C@@H](CO)C(=O)N1CCC[C@H]1C(=O)N[C@H](C(=O)N[C@@H](CO)C(=O)N[C@@H](CC(C)C)C(=O)N[C@@H](CCCNC(=N)N)C(=O)N[C@@H](Cc1ccc(O)cc1)C(=O)NCC(=O)N[C@@H](CO)C(=O)O)[C@@H](C)CC)C(C)C [Peptide 306]	5 ± 1
CC[C@H](C)[C@H](NC(=O)[C@H](CO)NC(=O)[C@H](CCSC)NC(=O)[C@H](CO)NC(=O)[C@H](Cc1ccc(O)cc1)NC(=O)[C@@H](NC(=O)[C@@H](NC(=O)[C@H](CO)NC(=O)[C@@H]1CCCN1C(=O)[C@H](Cc1ccccc1)NC(=O)[C@H](CC(C)C)NC(=O)[C@H](CC(C)C)NC(=O)[C@@H](NC(=O)[C@@H](NC(=O)[C@@H](NC(=O)[C@H](CC(C)C)NC(=O)[C@H](CO)NC(=O)[C@H](CCCNC(=N)N)NC(=O)[C@@H](N)CCSC)[C@@H](C)CC)[C@@H](C)CC)C(C)C)[C@@H](C)CC)[C@@H](C)CC)C(=O)N[C@@H](CCCNC(=N)N)C(=O)N[C@@H](CCCNC(=N)N)C(=O)O [Peptide 319]	1890
CC[C@H](C)[C@H](NC(=O)[C@H](Cc1ccccc1)NC(=O)[C@H](CC(C)C)NC(=O)[C@H](CC(C)C)NC(=O)[C@H](CS)NC(=O)[C@@H](NC(=O)[C@H](C)NC(=O)[C@H](C)NC(=O)[C@@H](NC(=O)[C@H](C)N)[C@@H](C)O)C(C)C)C(=O)N[C@@H](CCC(N)=O)C(=O)NCC(=O)N[C@@H](Cc1ccc(O)cc1)C(=O)N[C@@H](CO)C(=O)N[C@H](C(=O)N[C@@H](Cc1ccc(O)cc1)C(=O)N[C@@H](CCC(=O)O)C(=O)N[C@@H](CC(N)=O)C(=O)N[C@@H](Cc1ccc(O)cc1)C(=O)NCC(=O)N[C@@H](CC(N)=O)C(=O)O)[C@@H](C)CC [Peptide 336]	280 ± 40
CC[C@H](C)[C@H](NC(=O)[C@H](CCSC)NC(=O)[C@@H](N)Cc1ccc(O)cc1)C(=O)N[C@H](C(=O)N[C@H](C(=O)NCC(=O)N[C@H](C(=O)N[C@H](C(=O)N[C@H](C(=O)N[C@@H](CC(C)C)C(=O)N[C@@H](C)C(=O)N[C@@H](C)C(=O)N[C@@H](CC(C)C)C(=O)N[C@@H](Cc1ccccc1)C(=O)N[C@@H](CCSC)C(=O)N[C@@H](Cc1ccc(O)cc1)C(=O)N[C@@H](Cc1ccc(O)cc1)C(=O)N[C@@H](C)C(=O)N[C@@H](CCCCN)C(=O)N[C@@H](CCCNC(=N)N)C(=O)N[C@@H](CCSC)C(=O)O)[C@@H](C)CC)[C@@H](C)CC)C(C)C)[C@@H](C)CC)C(C)C [Peptide 317]	675 ± 185
CC[C@H](C)[C@H](NC(=O)CNC(=O)[C@H](CO)NC(=O)[C@H](CCC(N)=O)NC(=O)[C@H](CC(N)=O)NC(=O)[C@@H](NC(=O)[C@H](Cc1ccccc1)NC(=O)[C@@H]1CCCN1C(=O)[C@H](CCC(=O)O)NC(=O)[C@H](Cc1ccccc1)NC(=O)[C@@H](NC(=O)[C@H](CC(C)C)NC(=O)[C@@H](N)CS)C(C)C)C(C)C)C(=O)N[C@@H](CCC(=O)O)C(=O)N[C@H](C(=O)N[C@@H](CC(C)C)C(=O)N[C@@H](CC(C)C)C(=O)N[C@@H](CC(C)C)C(=O)N[C@@H](Cc1ccc(O)cc1)C(=O)N[C@@H](Cc1ccccc1)C(=O)N[C@@H](CCCCN)C(=O)O)[C@@H](C)CC [Peptide 311]	3400
CC[C@H](C)[C@H](NC(=O)[C@H](C)NC(=O)[C@H](CCCNC(=N)N)NC(=O)CNC(=O)[C@@H](NC(=O)[C@@H](NC(=O)[C@H](CCC(N)=O)NC(=O)[C@H](CCCNC(=N)N)NC(=O)[C@H](CC(C)C)NC(=O)[C@H](CO)NC(=O)[C@H](C)NC(=O)[C@H](CCC(=O)O)NC(=O)[C@H](CC(N)=O)NC(=O)[C@H](Cc1c[nH]c2ccccc12)NC(=O)[C@@H](N)[C@@H](C)O)[C@@H](C)CC)C(C)C)C(=O)N[C@@H](CCCNC(=N)N)C(=O)N[C@@H](CC(C)C)C(=O)N[C@@H](CC(N)=O)C(=O)N[C@@H](CO)C(=O)N[C@@H](Cc1c[nH]cn1)C(=O)N[C@H](C(=O)O)C(C)C [Peptide 343]	210 ± 20
CC[C@H](C)[C@H](NC(=O)CNC(=O)[C@@H](NC(=O)[C@H](CC(C)C)NC(=O)[C@H](CCCCN)NC(=O)[C@H](CC(C)C)NC(=O)[C@H](Cc1ccc(O)cc1)NC(=O)[C@H](CCC(=O)O)NC(=O)[C@H](CCCNC(=N)N)NC(=O)[C@@H](NC(=O)[C@H](CO)NC(=O)[C@@H](NC(=O)[C@@H](N)CC(N)=O)[C@@H](C)O)[C@@H](C)O)[C@@H](C)CC)C(=O)N[C@H](C(=O)N[C@@H](C)C(=O)N[C@H](C(=O)N[C@@H](CCSC)C(=O)N[C@@H](Cc1ccccc1)C(=O)N[C@@H](C)C(=O)N[C@H](C(=O)N[C@@H](Cc1ccc(O)cc1)C(=O)O)[C@@H](C)O)[C@@H](C)CC)[C@@H](C)O [Peptide 308]	23 ± 5
